This is an account of results in patent EP0563281B1, “METHOD FOR PROCESSING ELECTRICALLY CONDUCTIVE POLYANILINES IN LEWIS-BASE SOLVENTS” (MONSANTO COMPANY, priority 1990, dated 1992).

Usually pKa stands for the pH at which an ionisable group is half protonated.

A short description of series [1]: Hansen's method for solubility parameters and interaction distance r relative to polyaniline base. The conditions noted are these: for r: Table 5, interaction distance to polyaniline base (17.4, 8.5, 10.4).
Source text: When multiple literature source were found with widely differing values, those sets of values were taken which were the closest to those theoretically predicted for the given solvent.
For series [2] the following is noted: cited from earlier work.
The conditions of series [3]: cited from earlier work; for m: dipole moment; for mp: dipole moment of non-solvent.
Series [4] is described as follows: Solvent test with undoped (neutralized) polyaniline (Example 8). In kind it is physicochemical. The conditions noted are these: polyaniline synthesized as in Example 1, undoped with aqueous sodium carbonate. As to the method:
A series of potential solvents with significant polar and hydrogen bonding contributions were tested with polyaniline which had been synthesized as in Example 1 and then undoped (neutralized) by treatment with an aqueous solution of sodium carbonate.

Setting [5] is: Table 5, Hansen parameter of the liquid.
[6] abbreviates: Table 4, Hildebrand (solubility) parameter.
Where [7] appears, read: Table 4, dielectric constant relative to permittivity of free space.
Where [8] appears, read: Table 6, second half, Hansen parameter of non-solvent.
Setting [9] is: Table 6, Hansen parameter of non-solvent.
Where [10] appears, read: Table 6, Hildebrand parameter of non-solvent.
Where [11] appears, read: Table 4, relative sound velocity in paper wetted by the solvent (water = 100), hydrogen bonding capability.

Where two headings read alike, the source gives them in different places.

`Cc1ccccn1` [Picoline] yielded a r in series [1] of 4.0. Moreover, in series [2] (setting [5]), the dd was 18.2 MPa, the dh is 6.8 MPa and the dp is 7.8 MPa. Besides, in series [3] (setting [6]), the d is on record as 20.9 MPa. In addition, the e in series [3] (setting [7]) was 9.8. The m in series [3] (Table 4) is reported as 6.3 10^-30 Cm.
Consider `C1CCNCC1` [piperidine], for which the e in series [3] (Table 7, Dielectric Constant) was 5.8. For the same molecule, the d in series [3] (Table 7, Hildebrand Parameter) is reported as 19.3 MPa. The gw in series [3] (Table 7, Hydrogen Bonding) is given as 89.0.
Turning to `NCCN` [ethylenediamine], in series [2] (setting [5]), the dd is on record as 16.6 MPa, the dh is listed as 17.0 MPa and the dp is recorded as 8.8 MPa. In series [3] (setting [7]), the e is 12.9. In series [3] (Table 4), the m was 6.6 10^-30 Cm. Also, the e in series [3] (Table 7, Dielectric Constant) was 12.9. Further, the pKa in series [3] (Table 7) is 10.1.
Take `CCCCN(CCCC)CCCC` [tributylamine]: in series [2] (setting [8]), the dh is 4.0 MPa and the dp was 2.8 MPa. Further, in series [2] (setting [9]), the dd was 15.1 MPa. In series [3] (setting [10]), the d is on record as 15.9 MPa. For the same molecule, the mp in series [3] (Table 6) was 2.3 10^-30 Cm.
Take `CCCN` [propylamine]: in series [2] (setting [5]), the dd is reported as 13.9 MPa, the dh was 7.2 MPa and the dp is given as 9.3 MPa. The e in series [3] (setting [7]) is listed as 5.3. For the same molecule, the m in series [3] (Table 4) is 4.7 10^-30 Cm. Also, the e in series [3] (Table 7, Dielectric Constant) is listed as 5.3. Also, the pKa in series [3] (Table 7) is reported as 10.8.
As to `NCc1ccccc1` [benzylamine], the pKa in series [3] (Table 7) is on record as 9.3.
In series [1], `O=C1CCCN1` [2-pyrrolidone] came in with a r of 99.8. For the same molecule, in series [2] (setting [5]), the dd is given as 19.4 MPa, the dh is 11.3 MPa and the dp is 17.4 MPa. In addition, in series [3] (setting [6]), the d was 28.4 MPa. The m in series [3] (Table 4) is 7.7 10^-30 Cm. Besides, the d in series [3] (Table 7, Hildebrand Parameter) is recorded as 28.4 MPa.
As for `CCCCc1ccc(N)cc1` [4-Butylaniline], in series [2] (setting [8]), the dh is given as 6.6 MPa and the dp is 9.1 MPa. For the same molecule, the dd in series [2] (setting [9]) was 16.9 MPa. In series [3] (setting [10]), the d is 20.4 MPa.
On to `CCCNCCC` [dipropylamine], for which, in series [2] (setting [8]), the dh is recorded as 5.8 MPa and the dp was 6.2 MPa. Further, the dd in series [2] (setting [9]) was 14.0 MPa. For the same molecule, the d in series [3] (setting [10]) is given as 16.3 MPa.
Take `c1ccncc1` [pyridine]: in series [2] (setting [5]), the dd is 17.6 MPa, the dh was 7.7 MPa and the dp is given as 10.1 MPa. In addition, in series [3] (setting [7]), the e is recorded as 12.3. For the same molecule, in series [3] (Table 4), the m is given as 7.3 10^-30 Cm. Further, the gw in series [3] (setting [11]) is reported as 80.0.
`C1CCNC1` [pyrrolidine]: the m in series [3] (Table 4) is recorded as 5.3 10^-30 Cm.
Regarding `Cc1ccccn1` [2-picoline], the e in series [3] (Table 7, Dielectric Constant) was 9.8. Also, the d in series [3] (Table 7, Hildebrand Parameter) is 20.9 MPa.
As for `CCNc1ccccc1` [N-Ethylaniline], in series [2] (setting [8]), the dh is on record as 7.7 MPa and the dp was 10.5 MPa. In addition, the dd in series [2] (setting [9]) is recorded as 17.1 MPa. The d in series [3] (setting [10]) is given as 21.5 MPa.
Turning to `CCCCN` [butylamine], in series [2] (setting [5]), the dd is on record as 13.6 MPa, the dh is recorded as 8.0 MPa and the dp is listed as 8.1 MPa. In series [3] (setting [6]), the d is recorded as 18.6 MPa. In series [3] (setting [7]), the e is given as 5.3. Besides, the m in series [3] (Table 4) is recorded as 4.7 10^-30 Cm. Also, the e in series [3] (Table 7, Dielectric Constant) is recorded as 5.3. The d in series [3] (Table 7, Hildebrand Parameter) was 17.7 MPa. For the same molecule, the pKa in series [3] (Table 7) was 10.8.
Take `Nc1ccccc1` [aniline]: the r in series [1] is on record as 5.3. Moreover, in series [2] (setting [5]), the dd is 19.4 MPa, the dh is 10.0 MPa and the dp is 5.1 MPa. Moreover, the d in series [3] (setting [6]) was 22.6 MPa. For the same molecule, the e in series [3] (setting [7]) is 6.9. For the same molecule, the m in series [3] (Table 4) is 5.0 10^-30 Cm. In series [3] (setting [11]), the gw was 94.0.
For `CN(C)C=O` [Dimethylformamide], in series [2] (setting [5]), the dd was 17.4 MPa, the dh was 11.3 MPa and the dp is reported as 13.7 MPa. The e in series [3] (setting [7]) was 37.0. Moreover, in series [3] (Table 4), the m was 11.2 10^-30 Cm. Moreover, in series [3] (setting [11]), the gw is 68.0.
Regarding `CC(C)NC(C)C` [diisopropylamine], in series [1] (Table 6, second half, Hansen Method), the “predicted interaction distance (r)” value is on record as 11.3. Moreover, in series [2] (setting [8]), the dh was 2.0 MPa and the dp is recorded as 6.2 MPa. Besides, in series [2] (setting [9]), the dd is 13.8 MPa. Further, the d in series [3] (setting [10]) is on record as 15.2 MPa.
In turn, `CN(C)P(=O)(N(C)C)N(C)C` [hexamethylphosporamide] came in with a r in series [1] of 2.0. For the same molecule, the dd in series [2] (setting [5]) was 18.3 MPa. In addition, in series [2] (setting [5]), the dh was 11.3 MPa. Besides, the dp in series [2] (setting [5]) is 8.6 MPa. The d in series [3] (setting [6]) was 23.2 MPa; in series [3] (Table 7, Hildebrand Parameter) it was 23.2 MPa. The e in series [3] (setting [7]) is 30.0; in series [3] (Table 7, Dielectric Constant), 30.0. In series [3] (Table 4), the m is 17.6 10^-30 Cm.
Turning to `CN(C)N` [1,1-dimethylhydrazine], in series [3] (Table 7, Hildebrand Parameter), the d was 19.8 MPa.
`CNNC` [Dimethylhydrazine] showed a r in series [1] of 5.0. In series [2] (setting [5]), the dd is 15.3 MPa, the dh is 11.0 MPa and the dp is recorded as 5.9 MPa. Also, the d in series [3] (setting [6]) was 19.8 MPa.
Turning to `CCN(CC)CC` [triethylamine], in series [2] (setting [8]), the dh is on record as 1.9 MPa and the dp is listed as 3.7 MPa. In addition, in series [2] (setting [9]), the dd is 14.6 MPa. The d in series [3] (setting [10]) is reported as 15.3 MPa. The mp in series [3] (Table 6) is listed as 2.2 10^-30 Cm.
As for `CN1CCCC1=O` [N-methyl-2-pyrrolidone], in series [2] (setting [5]), the dd is reported as 16.5 MPa, the dh is 13.5 MPa and the dp is listed as 10.4 MPa. In series [4], the “solvent for undoped polyaniline” value is listed as “solvent”. Further, in series [3] (setting [6]), the d was 23.7 MPa. The e in series [3] (setting [7]) is listed as 32.0.
`C1COCCN1` [morpholine] came in with a r in series [1] of 4.0. Further, the dd in series [2] (setting [5]) is recorded as 16.0 MPa. Moreover, the dh in series [2] (setting [5]) is reported as 10.1 MPa. Besides, in series [2] (setting [5]), the dp is 11.4 MPa. Further, the d was 22.1 MPa in series [3] (setting [6]) and 22.1 MPa in series [3] (Table 7, Hildebrand Parameter). The e in series [3] (setting [7]) is given as 7.3; in series [3] (Table 7, Dielectric Constant), 7.3. Also, the m in series [3] (Table 4) was 5.0 10^-30 Cm. The gw in series [3] (setting [11]) is on record as 200.0; in series [3] (Table 7, Hydrogen Bonding), 200.0.
Regarding `c1ccc2ncccc2c1` [quinoline], in series [2] (setting [5]), the dd is listed as 19.4 MPa, the dh is 7.6 MPa and the dp is recorded as 7.0 MPa. The d in series [3] (setting [6]) is on record as 22.0 MPa. Also, the e in series [3] (setting [7]) is 9.0. The m in series [3] (Table 4) was 7.6 10^-30 Cm.
In the case of `c1c[nH]cn1` [imidazole], the pKa in series [3] (Table 7) is 7.1.
